Reference: paper PMC7047876, “Potent Chimeric Antimicrobial Derivatives of the Medicago truncatula NCR247 Symbiotic Peptide” (Frontiers in Microbiology, 2020)
Peptide text beside a SMILES is read from it.

What was measured:
Assay type in all cases: cell-based
[1] = test system: Acinetobacter baumannii (ATCC 17978); test: microbe, parasite or virus in culture; conditions: ATCC 17978, 3 h, pH 7.4; read-out: Minimal bactericidal concentration (MBC) A. b.
Text: (§1) The pathogenic bacterial strains obtained from the ATCC (United States) and NCTC (National Collection of Type Cultures – England) were the Gram-positive: Enterococcus faecalis (ATCC 29212), Staphylococcus aureus (HNCMO112011), Listeria monocytogenes (ATCC 19111) and the Gram-negative: Pseudomonas aeruginosa (ATCC 27853), Escherichia coli (ATCC 8739), Salmonella enterica (ATCC 13076), Klebsiella pneumoniae (NCTC 13440), Acinetobacter baumannii (ATCC 17978).
(§2) Overnight bacterial cultures grown in LB were diluted and grown to OD600 = 0.2–0.6 at 37°C with shaking. After harvesting and washing bacteria in PPB, the suspensions were adjusted to OD600 = 0.1 corresponding to ∼10^7 bacteria/mL. Antimicrobial activity of the peptides and the antibiotics was determined in PPB in 96 well microplates using 10 μL bacterial suspension and 90 μL of the 2-fold serial dilutions of peptides or antibiotics. Peptides were tested from 25 μM to 0.125 μM whereas the antibiotics; carbenicillin (Cb) from Duchefa Biochemie (Prod.No. C0109.0025) and levofloxacin (Lvx) from Sigma-Aldrich (Prod.No. 28266-10MG-F) from […] to 0.1 μM. The microplates were incubated for 3 h at 37°C with 250 rpm shaking and then 5 μl from each sample was placed on LB agar and the growth of bacteria was monitored after overnight incubation at 37°C. The lowest concentration of the antimicrobial agents, which completely eliminated viable bacteria was the minimal bactericidal concentration (MBC).

[2] = test system: Pseudomonas aeruginosa (ATCC 27853); test: microbe, parasite or virus in culture; conditions: ATCC 27853, 3 h, pH 7.4; read-out: Minimal bactericidal concentration (MBC) P. a.
Text: as §1, §2

[3] = test system: Listeria monocytogenes (ATCC 19111); test: microbe, parasite or virus in culture; conditions: ATCC 19111, 3 h, pH 7.4; read-out: Minimal bactericidal concentration (MBC) L. m.
Text: as §1, §2

[4] = test system: Salmonella enterica (ATCC 13076); test: microbe, parasite or virus in culture; conditions: ATCC 13076, 3 h, pH 7.4; read-out: Minimal bactericidal concentration (MBC) S. e.
Text: as §1, §2

[5] = test system: Staphylococcus aureus (HNCMO112011); test: microbe, parasite or virus in culture; conditions: HNCMO112011, 3 h, pH 7.4; read-out: Minimal bactericidal concentration (MBC) S. a.
Text: as §1, §2

[6] = test system: Klebsiella pneumoniae (NCTC 13440); test: microbe, parasite or virus in culture; conditions: NCTC 13440, 3 h, pH 7.4; read-out: Minimal bactericidal concentration (MBC) K. p.
Text: as §1, §2

[7] = test system: Enterococcus faecalis (ATCC 29212); test: microbe, parasite or virus in culture; conditions: ATCC 29212, 3 h, pH 7.4; read-out: Minimal bactericidal concentration (MBC) E. f.
Text: as §1, §2

[8] = test system: Escherichia coli (ATCC 8739); test: microbe, parasite or virus in culture; conditions: ATCC 8739, 3 h, pH 7.4; read-out: Minimal bactericidal concentration (MBC) E. c.
Text: as §1, §2

[9] = test system: Acinetobacter baumannii
Text: as §1
(§3) Ca^2+ and Mg^2+ can inhibit the antimicrobial activity of cationic peptides, therefore the MBC and MIC values were also determined in MHB, which unlike PPB contains divalent cations and allows growth of bacteria. Bacteria were grown and prepared similarly except that bacteria were resuspended in MHB. 10 μl of bacteria OD600 = 0.1, supplemented with 45 μl MHB and 45 μl of 2-fold dilution series of peptides, were cultivated for 3 and 20 h at 37°C with shaking. Optical density of each sample was measured (Hidex Sense Microplate Reader with Plate Reader Software version 5064) and 5 μl was placed on LB agar plates after 3 and 20 h treatment. The minimal inhibitory concentration (MIC) corresponded to the lowest concentration, which inhibited growth.

[10] = test system: Staphylococcus aureus
Text: as §1, §3

[11] = test system: Escherichia coli
Text: as §1, §3

[12] = test system: human melanoma A375 cells; test: XTT cell proliferation (cytotoxicity) assay; conditions: 72 h treatment, OD450, three biological repeats
Description: The cytotoxicity of peptides X1-NCR247C and NCR247C-X2 was determined against the human melanoma A375 cells with XTT cell proliferation assay kit (PanReac Applichem) and a benchtop microplate reader (Multiskan RC, Thermo Labsystems) according to the manufacturers’ instructions. A375 human melanoma cell line was obtained from ATCC and maintained in DMEM (Lonza) supplemented by 10% FBS (Euroclone) in a humidified incubator at 37°C and 5% CO2. A375 cells were seeded to 96-well plates (4,000 cells/well) and treated with the peptides for 72 h. Cells without peptides served as negative control and the blank sample was the medium. Reduction of the tetrazolium salt XTT by the viable cells to the orange colored compounds of formazan was measured at OD450. The XTT assay was performed in three biological repeats.

CSCC[C@H](NC(=O)[C@H](CCCCN)NC(=O)[C@H](Cc1ccccc1)NC(=O)[C@H](CC(N)=O)NC(=O)[C@H](CC(C)C)NC(=O)[C@@H]1CCCN1C(=O)[C@@H](N)CCCNC(=N)N)C(=O)N[C@@H](CC(C)C)C(=O)N[C@@H](CCCNC(=N)N)C(=O)N[C@@H](Cc1ccccc1)C(=O)N[C@@H](Cc1c[nH]c2ccccc12)C(=O)NCC(=O)N[C@@H](CCC(N)=O)C(=O)N[C@@H](CCC(N)=O)C(=O)N[C@@H](CCC(N)=O)C(=O)N[C@@H](CS)C(=O)N[C@@H](CCCNC(=N)N)C(=O)N[C@@H](CCCNC(=N)N)C(=O)N1CCC[C@H]1C(=O)N[C@@H](CC(C)C)C(=O)N[C@@H](Cc1ccc(O)cc1)C(=O)N[C@@H](CS)C(=O)N[C@@H](CCCNC(=N)N)C(=O)N[C@@H](CCCNC(=N)N)C(=O)N[C@@H](CCCNC(=N)N)C(N)=O [D, X1-NCR247C] (H-RPLNFKMLRFWGQQQCRRPLYCRRR-NH2; N-terminus assumed)
12.5 µM: MBC [6] | MBC in Mueller Hinton Broth, panel (A), E. c. ([11]; 3 h)
25 µM: MBC in Mueller Hinton Broth, panel (A), S. a. ([10]; 3 h)
6.3 µM: MBC [7] | MBC in Mueller Hinton Broth, panel (A), A. b. ([9]; 3 h)
did not show differences: Cytotoxicity / viability of A375 cells [12]
1.6 µM: MBC [4]
3.1 µM: MBC [1] | MBC [2] | MBC [3] | MBC [5] | MBC [8] | MBC in Mueller Hinton Broth, panel (B), A. b. ([9]; 20 h) | MIC in Mueller Hinton Broth, panel (C), A. b. ([9]; 20 h) | MBC in Mueller Hinton Broth, panel (B), S. a. ([10]; 20 h) | MIC in Mueller Hinton Broth, panel (C), S. a. ([10]; 20 h) | MBC in Mueller Hinton Broth, panel (B), E. c. ([11]; 20 h) | MIC in Mueller Hinton Broth, panel (C), E. c. ([11]; 20 h)
